According to paper PMC5962679 (Frontiers in Cellular and Infection Microbiology, 2018):
Ends that are not written are not given here.

Assays:
Assay in all cases: biochemical
Format in all cases: binding
Settings in all cases: for inhibition at 250 µM: 24 h, read-out: Binding percentage
HLA-DRB1*1101 = HLA-DRB1*1101 (Homo sapiens, UniProt P01903+P01911, A100R/A169T/A87E/I96F/K41T/L162R/M171V/P40S/Q125H/Q178H/Q39Y/Q99D/R42S/S66Y/T262R/V115G/W38E)
HLA-DRB1*1302 = HLA-DRB1*1302 (Homo sapiens, UniProt P01903+P01911, A100E/A169T/K41T/L162R/M171V/P40S/Q125H/Q178H/Q39Y/Q99D/R42S/S66N/T262R/V115G/W38E/Y61H)
HLA-DRB1*0401 = target: T1, HLA-DRB1*0401 (Homo sapiens, UniProt P01903+P01911, A100K/A169T/F76Y/I96L/K127E/L162R/M171V/N62H/P40V/Q125Y/R42H/S133A/S149N/S66Y/V115G/V209L/W38E)
T1 construct: homozygous lymphoblastoid B-cell lines (International Histocompatibility Working Group); host or cells: human HLA-DRB1*0401 homozygous lymphoblastoid B-cell line

HLA-DRB1*0701 = HLA-DRB1*0701 (Homo sapiens, UniProt P01903+P01911, A100R/A102G/A103Q/D57E/D86V/E43K/F76Y/K127E/L162R/M171V/P40G/Q125H/Q99D/R33Q/R42Y/R54Q/S133A/S66F/T210M/V115G/Y107V/Y59L/Y89S)

Chain of HLA-DRB1*1302 (P01903 26-254 limits assumed, other chains not shown): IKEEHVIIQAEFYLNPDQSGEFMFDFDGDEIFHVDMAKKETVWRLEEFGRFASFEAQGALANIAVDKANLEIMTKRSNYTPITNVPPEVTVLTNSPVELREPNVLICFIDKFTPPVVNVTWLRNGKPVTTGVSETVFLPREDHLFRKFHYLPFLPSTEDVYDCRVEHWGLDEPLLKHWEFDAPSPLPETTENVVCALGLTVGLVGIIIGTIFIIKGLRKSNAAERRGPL
Chain of HLA-DRB1*1101 (P01903 26-254 limits assumed, other chains not shown): as above

Sequence DKSFISEANSFRNEE [compound 39149] has an inhibition at 250 µM (HLA-DRB1*1101) of 36.5%, an inhibition at 250 µM (HLA-DRB1*1302) of 33.5% and an IC50 (HLA-DRB1*0401) of 26.3 µM. The inhibition at 250 µM (HLA-DRB1*0401) was 85.8% and the inhibition at 250 µM (HLA-DRB1*0701) was 42.8%.

In the case of KLKYIFKRRKTMKKK [compound 39151], the IC50 (HLA-DRB1*1101) is reported as 51.1 µM, the inhibition at 250 µM (HLA-DRB1*1101) is reported as 78.5% and the inhibition at 250 µM (HLA-DRB1*1302) is reported as 13.1%. For the same sequence, the IC50 (HLA-DRB1*0401) was 40 µM, the inhibition at 250 µM (HLA-DRB1*0401) was 65.3% and the inhibition at 250 µM (HLA-DRB1*0701) was 36%.

With LKPFYSLETMLMANS [compound 39147] the IC50 (HLA-DRB1*1101) was 23 µM, the inhibition at 250 µM (HLA-DRB1*1101) was 79.3% and the IC50 (HLA-DRB1*1302) was 79 µM. It also gave an inhibition at 250 µM (HLA-DRB1*1302) of 63%, an IC50 (HLA-DRB1*0401) of 4.6 µM and an inhibition at 250 µM (HLA-DRB1*0401) of 92.6%. It also gave an IC50 (HLA-DRB1*0701) of 26 µM and an inhibition at 250 µM (HLA-DRB1*0701) of 83.2%.

For NVRKFFLNDVSSIRH [compound 39148], the IC50 (HLA-DRB1*1101) was 83.4 µM, the inhibition at 250 µM (HLA-DRB1*1101) was 73.8% and the IC50 (HLA-DRB1*1302) was 7.4 µM. For the same sequence, the inhibition at 250 µM (HLA-DRB1*1302) was 94.2%, the IC50 (HLA-DRB1*0401) was 11.9 µM and the inhibition at 250 µM (HLA-DRB1*0401) was 83%. The IC50 (HLA-DRB1*0701) was 39.7 µM and the inhibition at 250 µM (HLA-DRB1*0701) was 79.9%.

NYEIYIASSSNIYLM [compound 39046] showed an IC50 (HLA-DRB1*1101) of 120 µM, an inhibition at 250 µM (HLA-DRB1*1101) of 82.9% and an IC50 (HLA-DRB1*1302) of 29.6 µM. For the same sequence, the inhibition at 250 µM (HLA-DRB1*1302) was 92.8%, the IC50 (HLA-DRB1*0401) was 28.4 µM and the inhibition at 250 µM (HLA-DRB1*0401) was 91.8%. For the same sequence, the IC50 (HLA-DRB1*0701) was 23.3 µM and the inhibition at 250 µM (HLA-DRB1*0701) was 91.5%.

In the case of QTAFRKFFKKIISLG [compound 39150], the IC50 (HLA-DRB1*1101) is reported as 83.4 µM, the inhibition at 250 µM (HLA-DRB1*1101) is reported as 87.6% and the inhibition at 250 µM (HLA-DRB1*1302) is reported as 7.7%. It also gave an IC50 (HLA-DRB1*0401) of 33.7 µM, an inhibition at 250 µM (HLA-DRB1*0401) of 83.6% and an IC50 (HLA-DRB1*0701) of 51.8 µM. It also gave an inhibition at 250 µM (HLA-DRB1*0701) of 67.2%.

Sequence TPIIVKYDNTHAKNR [compound 39048] has an inhibition at 250 µM (HLA-DRB1*1101) of 16.8%, an inhibition at 250 µM (HLA-DRB1*1302) of 3.3% and an IC50 (HLA-DRB1*0401) of 11.9 µM. It also gave an inhibition at 250 µM (HLA-DRB1*0401) of 90.7% and an inhibition at 250 µM (HLA-DRB1*0701) of 10.5%.
